For experiment [1], the system named is caspase 3/7 in SK-N-BE(2)-C. Put plainly: Caspase-Glo 3/7 assay. The experiment is classed as cell-based, human. As to conditions: 48 h, 1 μM tariquidar. On the procedure: (§1) Neuroblastoma cells were seeded in 384-well plates at different densities ranging from 1200 to 5000 cells/well and allowed to adhere overnight. Compound treatment was performed using the D300e Digital Dispenser (Tecan) in duplicate. At the 48 h time point, a Caspase-Glo 3/7 Assay (Promega, #G8090) was performed following the manufacturer’s protocol, but adapted to add a 1:2 ratio of Caspase-Glo 3/7 reagent volume to sample volume. The readout was performed using the GloMax Discover Microplate Reader (Promega). Caspase 3/7 luminescence values were normalized to that of the DMSO negative control, and mean relative caspase 3/7 luminescence values were calculated from 3 individual experiments.

The test system of the next experiment is caspase 3/7 in NGP. Put plainly: Caspase-Glo 3/7 assay. The experiment is classed as cell-based, human. As to conditions: 48 h, 1 μM tariquidar. The protocol: as §1
Another experiment concerns the target T1, NanoLuc-AURKA (Homo sapiens, UniProt O14965).
T1 construct: Plasmids encoding full-length wild-type AURKA fused to Nano-Luc; host or cells: HEK293T
T1 sequence (O14965 1-403): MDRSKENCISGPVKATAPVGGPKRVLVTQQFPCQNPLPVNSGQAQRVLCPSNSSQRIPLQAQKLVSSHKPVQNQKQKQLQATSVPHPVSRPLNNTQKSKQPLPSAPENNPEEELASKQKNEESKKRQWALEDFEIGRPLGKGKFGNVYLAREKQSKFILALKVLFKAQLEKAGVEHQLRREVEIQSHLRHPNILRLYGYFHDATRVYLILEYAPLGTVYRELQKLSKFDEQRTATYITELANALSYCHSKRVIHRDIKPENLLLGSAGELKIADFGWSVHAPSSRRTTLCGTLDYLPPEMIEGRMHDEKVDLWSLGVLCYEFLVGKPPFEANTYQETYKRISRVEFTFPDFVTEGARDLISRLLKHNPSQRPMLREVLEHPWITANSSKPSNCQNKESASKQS
Put plainly: NanoBRET target engagement, permeabilized mode. Type of experiment: binding. As to conditions: permeabilized HEK293T; read-out: NanoBRET IC50, tracer displacement from NanoLuc-AURKA. The protocol: The NanoBRET Target Engagement Assay (Promega) was performed according to the recommended instructions from the manufacturer. Plasmids encoding full-length wild-type AURKA fused to Nano-Luc via AURKA’s C-terminus (Promega, #NV1041) were transfected into HEK293T cells using FuGENE HD (Promega, #E2312). […] The plate was mixed at 900 rpm for 15 s, using an orbital shaker. For the permeabilized-mode, digitonin (Sigma-Aldrich, #D141) was additionally added at a final concentration of 50 μg/mL. Test compounds were subsequently administered in duplicate using the D300e digital dispenser (Tecan), followed by incubation for 2 h (37 °C, 5% CO2). To measure BRET, nanoglo substrate and extracellular nanoluc inhibitor (only in live-mode) (Promega #N2540) were added, and luminescence was measured using the GloMax Discover Microplate Reader (Promega) with a luminescence filter pair of 450 nm (BP filter, donor) and 600 nm (LP filter, acceptor). The NanoBRET ratio was calculated using the following formula: BRET ratio = 1000*[(acceptor signal/donor signal)with tracer – (acceptor signal/donor signal)no tracer]. Relative BRET ratios (%) were generated by normalizing to the negative DMSO control. The experiment was performed once with 2 replicate samples.
All dose–response curves were computed on GraphPad Prism using the Variable Slope (four parameters) equation. Absolute half-maximal degradation (DC50), growth inhibitory (GI50) and enzymatic inhibitory (IC50) concentrations, as well as inhibition constants (Ki) were derived from dose–response curves via interpolation. Statistical tests were performed on GraphPad Prism and detailed in the figure legends. Unless otherwise stated, “n” in the figure legends indicates the number of independent experiments conducted at different times.
In general terms: In BRET a luciferase serves as donor, and the signal depends on an acceptor being close.

The record followed here is paper PMC12670405, “Second-Generation AURKA-Targeting PROTACs: Structural Optimization toward in Vivo Degradation in Neuroblastoma” (Journal of Medicinal Chemistry, 2025).

On to `Cc1cc(Nc2ccc(F)c(CC3(C(=O)N4CCC(CN5CCN(c6ccc(N7CCC(=O)NC7=O)cn6)CC5)CC4)CCN(Cc4cccc(Cl)c4F)CC3)n2)n[nH]1` [SK4454], for which the “induction of apoptosis (caspase 3/7) upon cotreatment with tariquidar (in words)” value is reported as “significant increased induction of apoptosis” in experiment [1] and “no difference” with caspase 3/7 in NGP. In addition, the IC50 (commonly the concentration that inhibits the measured activity by half) on NanoLuc-AURKA is around 20 nM.

For `Cc1cc(Nc2ccc(F)c(CC3(C(=O)N4CCC(F)(CN5CCN(c6ccc(N7CCC(=O)NC7=O)cn6)CC5)CC4)CCN(Cc4cccc(Cl)c4F)CC3)n2)n[nH]1` [SK5527], the “induction of apoptosis (caspase 3/7) upon cotreatment with tariquidar (in words)” value is reported as “significant increased induction of apoptosis” in experiment [1] and “no difference” with caspase 3/7 in NGP. At NanoLuc-AURKA, the IC50 is around 20 nM.
